# *1 amine or outer side, *2 acyl side, *3 side chain or, on linkers, in order; H or OH if unused. Where a SMILES comes first, the peptide text is derived from it. Bridges are numbered along the chain shown (N, C = ends). Where no end group is shown, it is not given here. [ ]: non-standard residue; d: D form. The star is where a group is joined. X1 = CCCCCCCCCCCCC(C)(N[*:1])C(=O)[*:2]; Palmitoyl = CCCCCCCCCCCCCCCC(=O)*; Aib = CC(C)(N)C(=O)O
# Tests used:
# [1] = system: SW480 cells; assay: Toxicity (growth inhibition) for SW-480 cells; format: cell-based, human; set-up: unit not given here
# Description: (§1) Further optimization and testing of inhibitors was performed using this cell line. Table 5 presents toxicity data for select inhibitors for 4T1 cells and human colon cancer cell line SW-480, wherein GI50 is the concentration providing 50% growth inhibition and TGI is the total growth inhibition.
# [2] = system: 4T1 cells; assay: Toxicity (growth inhibition) for 4T1 cells; format: cell-based, mouse
# Description: To identify a mouse model for preclinical development of compounds, mouse cell lines were tested for (1) growth inhibition by the compounds and (2) the levels of constitutive Wnt signaling TCF-reporter activity using transfection of cell with TCF/LEF-responsive firefly luciferase construct. The data further confirmed that sensitivity to compounds correlated well with the levels of canonical Wnt signaling.
# Based on the data, mouse breast cancer cell line 4T1 was selected for in vivo testing.
# as §1
# [3] = system: Wnt pathway (TOPflash reporter transcription); assay: TOPflash dual luciferase reporter assay in primary metanephric mesenchyme (MM) cells; format: cell-based; details: 10 μM, 30 min pre-treatment, 24 hours
# Description: Primary metanephric mesenchyme (MM) cells were transfected with the Amaxa Nucleofector 96-well Shuttle System (Lonza Group Ltd, Basel, Switzerland). Briefly, 1×10^6 cells per transfection were resuspended in 20 μl of 96-well Nucleofector solutions. TOPflash luciferase plasmid (1 μg) and 0.1 μg pRL-TK-renilla plasmids (Promega, Madison, Wis., USA) were mixed with cell suspensions and transferred to the well of a 96-well Nucleocuvette module. Nucleofections were performed according to manufacturer's instructions using program DN-100.
# MM cells were pre-treated with or without CT-HC-1 (10 μM) for 30 min, and then exposed to GSK3 inhibitor BIO (500 nM) or Wnt3a conditioned medium (50%) (Wnt3aCM as described in Willert et al., Nature, 423: 448-452 (2003)) for 24 hours. Cells were lysed and assayed for reporter activity using a Dual luciferase assay system (Promega) and a Monolight 3010 Luminometer (Pharmagen, San Diego, Calif., USA).
# [4] = system: Lim-1, E-cadherin, Axin-2 expression; assay: Semi-quantitative RT-PCR of marker expression in MM cells; format: cell-based
# Excerpt: (§2) To determine if the loss of β-catenin affects differentiation, MM cells were co-cultivated with inductor, embryonic spinal cord, and treated with CT-HC-1. In these cultures, tubule formation was unaffected. This finding was supported by semi-quantitative RT-PCR analysis of BIO-induced MM cells in which levels of epithelial markers Lim-1 and E-cadherin were unaltered with CT-HC-1 treatment. […] This observation is consistent with reports describing an antagonistic relationship between canonical and non-canonical Wnt mechanisms (see, e.g., Park et al., Development, 132: 2533-2539 (2007); and Schmidt-Ott et al., Development, 132: 3177-3190 (2007).
# [5] = system: MM cells (tubule formation); assay: MM cell differentiation, co-cultivation with embryonic spinal cord inductor; format: cell-based; details: MM cells co-cultivated with embryonic spinal cord
# Excerpt: as §2
# [6] = system: HT-29 cells; format: cell-based; details: 48 h
# Description: (§3) HeLa, U3A, RKO, HCT-116, and HT-29 cells were exposed to the CT-HC-1, CT-HC-3, CT-HC-5, and CT-HC-8 inhibitors of Example 1 for 48 hours in medium containing 1% bovine fetal serum, and the resulting cell number was evaluated using a MTT assay. Each of these cell lines is relevant to the evaluation of Wnt signaling. Cervical carcinoma HeLa cells overexpress β-catenin (see, e.g., Lee et al., Int. J. Cancer, 124(2): 287-297 (2009); and Lee et al., Gynecol. Oncol., 109(2): 270-274 (2008)). β-catenin is activated in colon carcinoma RKO due to mutation in CDX2 (see, e.g., Dang et al., Oncogene, 20(35): 4884-4890 (2001)). Colon adenocarcinoma HCT116 has elevated mutated β-catenin; however, it was found in the past to be resistant to down regulation of β-catenin (see, e.g., Chan et al., Proc. Natl. Acad. Sci. USA, 99(12): 8265-8270 (2002); and Handeli et al., Mol. Cancer Ther., 7(3): 521-529 (2008)). Colon carcinoma HT-29 has truncated adenomatous polyposis coli (APC) protein, which is a common cause of canonical Wnt pathway activation in colon malignancies. Fibrosarcoma U3A cells are STAT1-negative and have uncharacterized status of Wnt pathway.
# (§4) The ability of CT-HC-1 to inhibit growth and to kill cancer cells at different concentrations was further investigated in HeLa, U3A, RKO, HCT-116, and HT-29 cells. The cells were stained with Promega Non-Radioactive Cell Proliferation Assay Kit (MTT) according to the manufacture's protocol. The absorbance of the wells was determined at 544 nm by a FLUOstar/POLARstar Galaxy (BMG Lab Technologies GmbH) Microplate Reader. The assays were performed on control (C) and test (T) cells. Untreated cells were used as a control. Cellular responses were calculated from the data using the following formula: 100×[(T−T0)/(C−T0)] for T>T0 and 100×[(T−T0)/T0] for T<T0. T0 corresponds to cell density at the time of drug addition.
# [7] = system: HeLa cells; format: cell-based; details: 48 h
# Description: as §3, §4
# [8] = system: RKO cells; format: cell-based; details: 48 h
# Description: as §3, §4
# [9] = system: U3A cells; format: cell-based; details: 48 h
# Description: as §3, §4
# [10] = system: β-catenin; assay: Levels of total β-catenin in MM cells; format: cell-based
# Description: Cells were also evaluated for levels of total β-catenin. In these studies, β-catenin was degraded within 3 hours of treatment with CT-HC-1.
# [11] = system: HeLa, U3A, RKO, HCT-116, and HT-29 cells; assay: MTT cell number versus concentration (FIG. 1); format: cell-based; details: HCT-116, HT-29
# Description: as §4
# [12] = system: HCT-116 cells; format: cell-based, human; details: 48 h
# Description: as §3, §4
# [13] = system: RKO, HT-29, HCT-116, SW-480, and SW-620 cells; assay: Cell viability of colon cancer cells (FIGS. 2A-C); format: cell-based; details: increasing concentrations, HT-29, HCT-116, SW-480, SW-620
# Description: The concentration (μM) of the peptide inhibitor is indicated on the x-axis and the percent viability is indicated on the y-axis.
# A similar experiment was performed using RKO, HT-29, HCT-116, SW-480, and SW-620 cells. Colorectal adenocarcinoma SW-480 and SW-620 cells have truncated APC protein, which—as discussed above—is a common cause of canonical Wnt pathway activation in colon malignancies.
# [14] = system: 4T1 breast cancer; assay: 4T1 breast cancer mouse model; format: in vivo; details: 2 mg/kg subcutaneously three times a week, alone, after three injections
# Description: CT-HC-11 has been tested in 4T1 breast cancer mouse model at two doses: 10 and 2 mg/kg injected subcutaneously three times a week alone or in combination with weekly gemcitabine (75 mg/kg).
# [15] = cells exposed only to peptide, no inductive ligand
compound,measurement,setting,value
Pal-YKKRLSVELTSSLFRTEPMAW (Palmitoyl-YKKRLSVELTSSLFRTEPMAW) [CT-HC-16],SW480 cells TGI (total growth inhibition),[1],>5
same,4T1 cells TGI (total growth inhibition),[2],> 5 µM
Pal-YKKRLSVELTSSLFR (Palmitoyl-YKKRLSVELTSSLFR) [CT-HC-12],SW480 cells TGI (total growth inhibition),[1],>5
same,4T1 cells TGI (total growth inhibition),[2],> 5 µM
"CCCCCCCCCCCCCCCC(=O)NCCCC[C@H](N)C(=O)N[C@@H](Cc1ccc(O)cc1)C(=O)N[C@@H](CCCCN)C(=O)N[C@@H](CCCCN)C(=O)N[C@@H](CCCNC(=N)N)C(=O)N[C@@H](CC(C)C)C(=O)N[C@@H](CO)C(=O)N[C@H](C(=O)N[C@@H](CCC(=O)O)C(=O)N[C@@H](CC(C)C)C(=O)N[C@H](C(=O)N[C@@H](CO)C(=O)N[C@@H](CO)C(=O)N[C@@H](CC(C)C)C(=O)N[C@@H](Cc1ccccc1)C(=O)N[C@@H](CCCNC(=N)N)C(=O)O)[C@@H](C)O)C(C)C [CT-HC-1, Pal-ε-KYKKRLSVELTSSLFR] (H-K(Palmitoyl)YKKRLSVELTSSLFR-OH; N-terminus and C-terminus assumed)",BIO-induced transcription (TOPflash reporter),[3]; BIO 500 nM,completely blocked
same,Wnt3aCM-induced transcription (TOPflash reporter),[3]; Wnt3a conditioned medium 50%,completely blocked
same,levels of epithelial markers Lim-1 and E-cadherin,[4]; BIO-induced MM cells,unaltered
same,Axin-2 expression,[4]; [15],decrease
same,expression of Lim-1 and E-cadherin,[4]; [15],enhanced expression
same,tubule formation,[5],unaffected
same,SW480 cells TGI (total growth inhibition),[1],5
same,GI50,[6],1.4 ± 0.05 µM
same,GI50,[7],0.63 ± 0.025 µM
same,GI50,[8],1.3 ± 0.05 µM
same,GI50,[9],0.6 ± 0.04 µM
same,time of treatment within which β-catenin was degraded,[10],≤ 3 h
same,β-catenin levels 24 hours after treatment,[10]; 24 hours,had not recovered
same,β-catenin levels in presence of proteasomal inhibitor MG132,[10]; with MG132,stabilized
same,cell number as compared to untreated cells,[11],decreased cell numbers in a concentration dependent manner
same,GI50,[12],3.4 ± 0.25 µM
same,cell viability,[13],decreased viability
same,4T1 cells TGI (total growth inhibition),[2],> 5 µM
Pal-NKPQDYKKRLSVELTSSLFR [CT-HC-2],SW480 cells TGI (total growth inhibition),[1],>5
same,4T1 cells TGI (total growth inhibition),[2],> 5 µM
Pal-Aib-YKKRLSVELTSSLFR (Palmitoyl-[Aib]YKKRLSVELTSSLFR) [CT-HC-13],4T1 cells TGI (total growth inhibition),[2],> 5 µM
"Ac-YKKRLS+ELT+SLFR (Ac-YKKRLSXELTXSLFR; staple 7-11; not fully specified (residues 7, 11); printed as Ac-YKKRLS+ELT+SLFR) [CT-HC-9]",SW480 cells TGI (total growth inhibition),[1],>5
same,4T1 cells TGI (total growth inhibition),[2],> 5 µM
Cap-TRFLSSTLQVSLRKK-NH2 [CT-HC-22],4T1 cells TGI (total growth inhibition),[2],> 5 µM
"CCCCCCCCCCCCC(C)(N)C(=O)N[C@@H](Cc1ccc(O)cc1)C(=O)N[C@@H](CCCCN)C(=O)N[C@@H](CCCCN)C(=O)N[C@@H](CCCNC(=N)N)C(=O)N[C@@H](CC(C)C)C(=O)N[C@@H](CO)C(=O)N[C@H](C(=O)N[C@@H](CCC(=O)O)C(=O)N[C@@H](CC(C)C)C(=O)N[C@H](C(=O)N[C@@H](CO)C(=O)N[C@@H](CO)C(=O)N[C@@H](CC(C)C)C(=O)N[C@@H](Cc1ccccc1)C(=O)N[C@@H](CCCNC(=N)N)C(=O)O)[C@@H](C)O)C(C)C (stereo partly shown) [CT-HC-8, Doa-YKKRLSVELTSSLFR] (H-[X1]YKKRLSVELTSSLFR-OH; N-terminus and C-terminus assumed)",SW480 cells TGI (total growth inhibition),[1],0.4
same,GI50,[6],> 5 µM
same,GI50,[7],3.2 ± 0.4 µM
same,GI50,[8],> 5 µM
same,GI50,[9],> 5 µM
same,GI50,[12],> 5 µM
same,cell viability,[13],decreased viability
same,4T1 cells TGI (total growth inhibition),[2],> 5 µM
Pal-RFLSSTLQVSLRKK-NH2 [CT-HC-20],4T1 cells TGI (total growth inhibition),[2],> 5 µM
Pal-Aib-YKKRLSVQLTSSLFR (Palmitoyl-[Aib]YKKRLSVQLTSSLFR) [CT-HC-19],4T1 cells TGI (total growth inhibition),[2],> 5 µM
"CCCCCCCCCCCCCCCC(=O)NCCCC[C@H](N)C(=O)N[C@@H](Cc1ccc(O)cc1)C(=O)N[C@@H](CCCCN)C(=O)N[C@@H](CCCCN)C(=O)N[C@@H](CCCNC(=N)N)C(=O)N[C@@H](CC(C)C)C(=O)N[C@@H](CO)C(=O)N[C@H](C(=O)N[C@@H](CCC(N)=O)C(=O)N[C@@H](CC(C)C)C(=O)N[C@H](C(=O)N[C@@H](CO)C(=O)N[C@@H](CO)C(=O)N[C@@H](CC(C)C)C(=O)N[C@@H](Cc1ccccc1)C(=O)N[C@@H](CCCNC(=N)N)C(=O)O)[C@@H](C)O)C(C)C [CT-HC-3, Pal-ε-KYKKRLSVQLTSSLFR] (H-K(Palmitoyl)YKKRLSVQLTSSLFR-OH; N-terminus and C-terminus assumed)",SW480 cells TGI (total growth inhibition),[1],0.5
same,GI50,[6],2.8 ± 0.1 µM
same,GI50,[7],0.8 ± 0.08 µM
same,GI50,[8],1.8 ± 0.15 µM
same,GI50,[9],0.65 ± 0.045 µM
same,GI50,[12],4 ± 0.3 µM
same,cell viability,[13],decreased viability
same,4T1 cells TGI (total growth inhibition),[2],> 5 µM
Pal-Aib-TRFLSSTLQVSLRKK-NH2 [CT-HC-11],tumor volume,[14],significant reduction in tumor volume
same,4T1 cells TGI (total growth inhibition),[2],3 µM
Pal-TRFLSSTLQVSLRKK-NH2 [CT-HC-15],4T1 cells TGI (total growth inhibition),[2],3.6 µM
Pal-TRFLSSTLEVSLRKKY-NH2 [CT-HC-10],SW480 cells TGI (total growth inhibition),[1],2.2
same,4T1 cells TGI (total growth inhibition),[2],2 µM
Lau-TRFLSSTLQVSLRKK-NH2 [CT-HC-23],4T1 cells TGI (total growth inhibition),[2],3.5 µM

# Reference: patent US9056891B2, “Synthetic peptide inhibitors of Wnt pathway” (The United States of America, as represented by the …, priority 2010, dated 2015)
